Data reported in US20240271184A1, “LOW PH COMPOSITION AND METHOD FOR S[…] ACIDS IN BIOLOGICAL SAMPLES” (priority 2021, published 2024).

Columns and labels:
[1] = system: nucleases in saliva samples; assay type: biochemical, human; settings: for degradation of RNA in saliva samples obtained from nuclease-rich donors: pH 5.2; for rRNA doublet integrity and RIN in saliva: pH 4.71; for RNA stability and RIN as pH decreased: pH 5; for rRNA doublet and RIN of spiked RNA in saliva: T2
[2] = system: nucleases in stool samples; assay type: biochemical, human; settings: pH 4.7
[3] = system: RNAse activity in saliva samples; assay: Nuclease assay (RNAseAlert) in saliva mixed 1:1 with formulation; assay type: biochemical, human; settings: ATA 5 mM final; PAAc at pH 4.7; CDTA when ATA was present; saliva 1:1
[4] = Solubility of salts in the present composition; settings: 4% SDS/100 mM CDTA/10 mM ATA/10 mg/mL PAAc

Which “degradation of RNA in saliva samples obtained from nuclease-rich donors” value (“degradation of RNA” below) [1] does the source give for `O[C@H](CS)[C@H](O)CS` (racemic) [dithiothreitol] here?
Its value is “Degradation of RNA”.

Which “degradation of RNA” value [1] does the source give for `O=C(O)c1cc(SSc2ccc([N+](=O)[O-])c(C(=O)O)c2)ccc1[N+](=O)[O-]` [5,5-dithio-bis-(2-nitrobenzoic acid)] here?
The value was “Degradation of RNA”.

With `O=C(O)c1cc2cccc([N+](=O)[O-])c2[nH]1` [7-nitroindole-2-carboxylic acid] as the molecule, how does the “degradation of RNA” value [1] read?
The value was “Degradation of RNA”.

For `O=C(O)CN(CC(=O)O)C1CCCCC1N(CC(=O)O)CC(=O)O` (centres unmarked) [CDTA, 1,2-cyclohexanediaminetetraacetic acid], which “RIN and rRNA doublet of spiked RNA in stool” value [2] is on record?
Its value is “RIN values increased and rRNA doublet remained intact”.

And the “effect on RNAse activity of addition to guanidinium salt-based compositions” value [3]?
Its value is “minimal effect on RNAse activity”.

Which “rRNA doublet integrity and RIN in saliva” value [1] does the source give for `CCCCCCCCCCCCCCCC[N+](C)(C)C.[Br-]` [CTAB, Cetyltrimethylammonium bromide] here?
The value was “doublet was degraded and the RIN was significantly reduced”.

For `O=C(O[C@@H]1Cc2c(O)cc(O)cc2O[C@@H]1c1cc(O)c(O)c(O)c1)c1cc(O)c(O)c(O)c1` [EGCG, epigallocatechin gallate], which “degradation of RNA” value [1] is on record?
Its value is “did not prevent degradation of RNA”.

For `N#CS.N=C(N)N` [GTC, guanidinium thiocyanate], which “relative effectiveness for stabilizing RNA at low pH” value [1] is on record?
The value was “more effective than GuHCl”.

What about the “RNA stability and RIN as pH decreased” value [1] of the same molecule?
The value was “surprising improvement in RNA stability and corresponding increase in RIN”.

For `Cl.N=C(N)N` [GuHCl, guanidinium hydrochloride], which “RNA stability and RIN as pH decreased” value [1] is on record?
Its value is “surprising improvement in RNA stability and corresponding increase in RIN”.

With `[Cl-].[K+]` [KCl] as the molecule, how does the “solubility in the present composition” value [4] read?
Its value is “solubility issues”.

For `O=S(=O)([O-])[O-].[Li+].[Li+]` [Li2SO4, lithium sulphate], which “rRNA doublet and RIN of spiked RNA in saliva” value (“rRNA doublet and RIN” below) [1] is on record?
The value was “rRNA doublet was intact and the RIN was high”.

With `[Cl-].[Li+]` [LiCl, lithium chloride] as the molecule, how does the “rRNA doublet and RIN” value [1] read?
The value was “rRNA doublet was intact and the RIN was high”.

Which “rRNA doublet and RIN” value [1] does the source give for `[Cl-].[Na+]` [NaCl, sodium chloride] here?
Its value is “rRNA doublet was intact and the RIN was high”.

For `CCCCCCCCCCCCOS(=O)(=O)[O-].[Na+]` [SDS, sodium dodecyl sulfate], which “rRNA doublet integrity and RIN in saliva” value [1] is on record?
The value was “able to preserve the integrity of rRNA”.

For `N[C@H]1C(O)O[C@H](COP(=O)(O)O)[C@@H](O)[C@@H]1O` (some centres unmarked) [glucosamine 6-phosphate], which “degradation of RNA” value [1] is on record?
The value was “Degradation of RNA”.

With `O=S(=O)(O)c1cc(O)c2c(O)c(/N=N/c3cccc4ccccc34)c(S(=O)(=O)O)cc2c1` [pontacyl violet 6R] as the molecule, how does the “degradation of RNA” value [1] read?
The value was “Degradation of RNA”.

With `Cc1ccc(S(=O)(=O)O)cc1.[Na]` [sodium p-toluenesulfonate] as the molecule, how does the “degradation of RNA” value [1] read?
Its value is “Degradation of RNA”.

With `O=C(O)CCP(CCC(=O)O)CCC(=O)O` [tris(2-carboxyethyl)phosphine] as the molecule, how does the “degradation of RNA” value [1] read?
Its value is “Degradation of RNA”.

Which “degradation of RNA” value [1] does the source give for `OCCS` [β-2-mercaptoethanol] here?
Its value is “Degradation of RNA”.

Which “degradation of RNA” value [1] does the source give for ribonucleoside vanadyl complexes here?
Its value is “Degradation of RNA”.

Which “rRNA doublet integrity and RIN in saliva” value [1] does the source give for sodium lauroyl sarcosinate [Sarkosyl] here?
The value was “doublet was degraded and the RIN was significantly reduced”.

B1: recombinant human placental RNAse inhibitor (protein, UniProt P13489 2-461, looked up)
Ribonuclease inhibitor: SLDIQSLDIQCEELSDARWAELLPLLQQCQVVRLDDCGLTEARCKDISSALRVNPALAELNLRSNELGDVGVHCVLQGLQTPSCKIQKLSLQNCCLTGAGCGVLSSTLRTLPTLQELHLSDNLLGDAGLQLLCEGLLDPQCRLEKLQLEYCSLSAASCEPLASVLRAKPDFKELTVSNNDINEAGVRVLCQGLKDSPCQLEALKLESCGVTSDNCRDLCGIVASKASLRELALGSNKLGDVGMAELCPGLLHPSSRLRTLWIWECGITAKGCGDLCRVLRAKESLKELSLAGNELGDEGARLLCETLLEPGCQLESLWVKSCSFTAACCSHFSSVLAQNRFLLELQISNNRLEDAGVRELCQGLGQPGSVLRVLWLADCDVSDSSCSSLAATLLANHSLRELDLSNNCLGDAGILQLVESVRQPGCLLEQLVLYDIYWSEEMEDRLQALEKDKPSLRVIS
With B1 as the molecule, how does the “degradation of RNA” value [1] read?
Its value is “Degradation of RNA”.
